Measurements as given in patent publication US20250381274A1 (priority 2022, published 2025).
Entries after “also recorded” stand apart in the source; their conditions may differ.

Assays:
cornea [1] = assay: Corneal topography (EyeSys), effective refractive power of ex vivo eyes crosslinked under coverslip loading; parameters: species or system rabbit; settings: for immediate diopter drop (words) / sustained diopter drop (words): 20% ribose 1 hr + UVA 365 nm lamp up to 3 hrs; for immediate diopter drop (words): coverslip (Hypothesis 2B / Group3); for sustained diopter drop (words): coverslip, final time point 8-10 hours; for immediate diopter drop (decrease in effective refractive power): immediately after irradiation
Text: • 5 additional rabbits (Paired treated and control for OS/OD) • Sample preparation for ex vivo EyeSys topography: • connected to IV system (˜15 mm H2O) • Epithelium removed • CxL during mechanical deformation introduced by the coverslip • Point1: 1 hr after IV stabilization • Point2: after applying 20% (1.7M) Ribose, then 20% Dextran • Point3: after flattening/treatment (˜2 hrs) • (flattened 8-10 mm) • Point4: ˜1 hr after point3 • Point5: last point (might need trypan blue on top) • Laser Treatments: • Fidelity II, 1069 nm, 39fs, 450 mW • Focusing: no (deliberate) spark around touching the tissue • ZEISS 40X, NA=0.1463 • Z: increments 20 μm, 5 layers (several intervals) • 1 stlayer 15 μm below surface of focus sparking • XY: 10 μm zigzag grid, 3 mm radius circle • Motor speed 2.6 mm/s, full circle treatments: ˜25*5 mins • Representative OCT and visual changes are shown in appended FIGS. 1-25.
• 3 additional rabbits (Paired treated and control for OS/OD) • connected to IV system, stabilize for ˜1 hr • Trypan Blue inside the anterior chamber beneath cornea • CxL during mechanical deformation introduced by the coverslip • (˜40%-60% flattened by coverslip from the total diameter) • Treatment Protocol-1 hr submerged in 20% w/v Ribose in 20% Dextran • up to 3 hrs of UVA lamp (visible flattening as an indicator for duration)
Corneal Topography: For Group3 eyes, using an EyeSys Vista handheld topographer, the effective refractive power (Eff.Rp) was collected at multiple time points in a 10-hour period after eye harvest. The immediate diopter drop was defined as the difference between the initial baseline Eff.Rp and the Eff.Rp immediately after CXL. The sustained diopter drop was defined as the difference between the initial baseline Eff.Rp and the final Eff.Rp. Statistical Analysis: One-tailed paired t-tests were used for statistical analysis of Eff.Rp (Group3); two-tailed paired t-tests were used for biomechanical comparison (Group1 and 2). A p-value smaller than 0.05 was considered statistically significant.
Corneal Topography and OCT: The EyeSys topography effective refractive power (Eff.Rp) and OCT images were collected at multiple time points in a 10-hour period after eye harvest. Diopter drop after CxL was calculated and compared relative to the baseline Eff.Rp.
(§1) In Group2 (n=15 rabbits), to assess corneal flattening, 24 intact eyeballs (12 rabbits) were enucleated and placed into a custom-build holder such that one eye was subject to ROS-Glycation-CXL, and the other served as a paired control. After 1 hr incubation in 20% ribose PBS, all apical eyeballs were pressed with a coverslip until the contact between the cornea and the coverslip reached approximately 3 mm in diameter until the treatment finished. Group 2A's (n=6 pairs) treated eyes were exposed to 1.5 hours of UVA lamp irradiation, whereas Group 2 B's (n=6 pairs) treated eyes were exposed to 3 hours of UVA lamp irradiation. Intraocular pressure was kept at 18-20 mm H2O through an IV system with needles connecting at the posterior side of the eyeball. In order to investigate the mechanical difference between the 1.5 hrs and 3 hrs irradiation groups, Group 2C's (n=3 pairs) corneas went through similar preparations as Group 1 corneas did such that the two treatments with different irradiation times were applied to the pair of eyes from the same animal.
Effective refractive power (Eff. RP) was measured using a handheld topographer (EyeSys Vista, Teas, USA) for Group 2A and 2B eyes. The first point measured at 0.5-1 hour represents the baseline initial refractive power after stabilization at the controlled intraocular pressure before any alterations. The second point measured at 2 hours represents the refractive power after the ribose solution application. The third point at 3.5 hours for Group 2A or 5 hours for Group 2B represents refractive power after ROS-Glycation-CXL or loading for control eyes. […]

cornea [2] = assay: Optical coherence tomography, corneal apical thickness; parameters: species or system rabbit; settings: for sustained thickness change, treated vs control / thickness increase compared to the baseline: final time point; for thickness increase compared to the baseline: all eyes (treated and control)
Protocol: as §1, with “animal. The corneas' cross-section and apical thickness were measured using an optical coherence tomographer (OQ LabScope Lumedica, North Carolina, USA) at the same time points described above. The thickness of the corneas was first segmented in ImageJ and calculated using a constant pixel-to-length conversion factor.” for “animal.”

[3] = 20% ribose + 1069 nm femtosecond laser 450 mW, coverslip deformation (Hypothesis 2A)

O=C[C@H](O)[C@H](O)[C@H](O)CO [ribose]
immediate diopter drop (words) (cornea [1]): significant Eff.RP diopter drop
immediate diopter drop (words) (cornea [1]; listed as Ribose): diopter drop immediately after treatment
sustained diopter drop (words) (cornea [1]): statistically significant sustained Eff.RP diopter drop; also recorded: stably sustained
sustained diopter drop (words) (cornea [1]; listed as Ribose): persistent at the 8-10 hours time point
immediate diopter change (cornea [1]; [3]): diopter drop immediately after treatment
persistence of diopter change (cornea [1]; [3]): not persistent and gradually recovered to the baseline
immediate diopter drop (decrease in effective refractive power) (cornea [1]; Group 2A: 20% ribose 1 hr, 1.5 hr 365 nm UVA lamp under coverslip flattening): 5 diopters
sustained diopter drop (decrease in effective refractive power) (cornea [1]; Group 2A: 1.5 hr UVA treatment, 10 hr time point): 2.5 diopters
immediate diopter drop (decrease in effective refractive power) (cornea [1]; Group 2B: 20% ribose 1 hr, 3 hr 365 nm UVA lamp under coverslip flattening): 10 diopters
refractive power drop, crosslinked vs control pairs, immediate and sustained (cornea [1]; Groups 2A and 2B: ribose + 1.5 hr or 3 hr UVA lamp with coverslip loading): sustained drop of refractive power; also recorded: Significant immediate and sustained refractive power drop differences
sustained thickness change, treated vs control (cornea [2]; Group 2A, 1.5 hr treatment): no significant difference; also recorded: no significant immediate and sustained corneal apical thickness differences
immediate thickness change, treated vs loading-only control (cornea [2]; Group 2A, 1.5 hr treatment, immediately after treatment): no significant thickness change difference; also recorded: no significant immediate and sustained corneal apical thickness differences
thickness increase compared to the baseline (cornea [2]; Group 2A): above 100 μm
sustained thickness change, treated vs control (cornea [2]; Group 2B, 3 hr treatment): no significant difference; also recorded: no significant immediate and sustained corneal apical thickness differences
thickness increase compared to the baseline (cornea [2]; Group 2B): above 200 μm
immediate apical thickness increase compared to loading-only control (cornea [2]; Group 2B: coverslip flattening + 3 hr ROS-Glycation CxL, immediately after treatment): 400 nm
